In this assay the test system is MV-4-11 cells. Nature of the assay: Gene expression microarray analysis (Affymetrix PrimeView) and GSEA. Set-up: RFU PODN (11730768_x_at) / Fold change /veh PODN (11730768_x_at) / RFU LINC00158 (11744669_a_at) / Fold change /veh LINC00158 (11744669_a_at) / RFU DUSP10 (11751237_a_at) / Fold change /veh DUSP10 (11751237_a_at) / RFU ID3 (11757404_x_at) / Fold change /veh ID3 (11757404_x_at) / RFU PLEKHG5 (11737974_s_at) / Fold change /veh PLEKHG5 (11737974_s_at) / RFU LRRC4B (11730491_at) / Fold change /veh LRRC4B (11730491_at) / RFU GIMAP4 (11747438_a_at) / Fold change /veh GIMAP4 (11747438_a_at) / RFU KRT8 (11758183_x_at) / Fold change /veh KRT8 (11758183_x_at) / RFU CNN1 (11734310_a_at) / Fold change /veh CNN1 (11734310_a_at) / RFU VPS37D (11726825_at) / Fold change /veh VPS37D (11726825_at) / RFU C10orf10 (11716522_x_at) / Fold change /veh C10orf10 (11716522_x_at) / RFU KIR2DL2 /// KIR2DL4 /// KIR2DL5A /// KIR2DL5B /// KIR2DS1 /// KIR2DS2 /// KIR2DS3 /// KIR2DS4 /// KIR3DL3 /// KIR3DL3 /// KIR3DS1 (11738374_at) / Fold change /veh KIR2DL2 /// KIR2DL4 /// KIR2DL5A /// KIR2DL5B /// KIR2DS1 /// KIR2DS2 /// KIR2DS3 /// KIR2DS4 /// KIR3DL3 /// KIR3DL3 /// KIR3DS1 (11738374_at) / RFU C1QL1 (11718748_at) / Fold change /veh C1QL1 (11718748_at) / RFU TMPRSS4 (11747572_a_at) / Fold change /veh TMPRSS4 (11747572_a_at) / RFU HAMP (11756126_x_at) / Fold change /veh HAMP (11756126_x_at) / RFU RNFT2 (11725882_a_at) / Fold change /veh RNFT2 (11725882_a_at) / RFU NR4A2 (11747474_a_at) / Fold change /veh NR4A2 (11747474_a_at) / RFU ABCC12 (11746883_a_at) / Fold change /veh ABCC12 (11746883_a_at) / RFU TMEM136 (11760407_x_at) / Fold change /veh TMEM136 (11760407_x_at) / RFU CLDN22 /// WWC2 (11732394_at) / Fold change /veh CLDN22 /// WWC2 (11732394_at) / RFU HLA-DPB1 (11760878_x_at) / Fold change /veh HLA-DPB1 (11760878_x_at) / RFU SPINT1 (11716480_a_at) / Fold change /veh SPINT1 (11716480_a_at) / RFU GAP43 (11754022_s_at) / Fold change /veh GAP43 (11754022_s_at) / RFU A4GNT (11735810_at) / Fold change /veh A4GNT (11735810_at) / RFU PRB3 (11715151_x_at) / Fold change /veh PRB3 (11715151_x_at) / RFU TUBB4B (11761932_at) / Fold change /veh TUBB4B (11761932_at) / RFU CAPN14 (11732068_a_at) / Fold change /veh CAPN14 (11732068_a_at) / RFU TMCC2 (11721928_a_at) / Fold change /veh TMCC2 (11721928_a_at) / RFU IRGQ (11745062_a_at) / Fold change /veh IRGQ (11745062_a_at) / RFU FAM174B (11720279_a_at) / Fold change /veh FAM174B (11720279_a_at) / RFU TMPRSS4 (11748680_a_at) / Fold change /veh TMPRSS4 (11748680_a_at) / RFU FAM212B (11763350_a_at) / Fold change /veh FAM212B (11763350_a_at) / RFU PLEKHG5 (11743358_a_at) / Fold change /veh PLEKHG5 (11743358_a_at) / RFU ZSCAN30 (11745921_a_at) / Fold change /veh ZSCAN30 (11745921_a_at) / RFU CMKLR1 (11741424_a_at) / Fold change /veh CMKLR1 (11741424_a_at) / RFU LOC101060620 /// MAPK8IP1 (11723275_at) / Fold change /veh LOC101060620 /// MAPK8IP1 (11723275_at) / RFU SPTSSB (11747773_x_at) / Fold change /veh SPTSSB (11747773_x_at) / RFU PRSS12 (11739890_at) / Fold change /veh PRSS12 (11739890_at) / RFU BIN1 (11741810_x_at) / Fold change /veh BIN1 (11741810_x_at) / RFU WNT11 (11732464_a_at) / Fold change /veh WNT11 (11732464_a_at) / RFU C10orf10 (11716521_a_at) / Fold change /veh C10orf10 (11716521_a_at) / RFU C5orf56 (11738089_at) / Fold change /veh C5orf56 (11738089_at) / RFU CYB561 (11721691_x_at) / Fold change /veh CYB561 (11721691_x_at) / RFU ANKRD19P (11752326_a_at) / Fold change /veh ANKRD19P (11752326_a_at) / RFU OR2T12 /// OR2T33 /// OR2T8 (11738714_s_at) / Fold change /veh OR2T12 /// OR2T33 /// OR2T8 (11738714_s_at) / RFU VCAN (11748164_a_at) / Fold change /veh VCAN (11748164_a_at) / RFU JSRP1 (11732532_at) / Fold change /veh JSRP1 (11732532_at) / RFU KRTAP10-11 (11738290_x_at) / Fold change /veh KRTAP10-11 (11738290_x_at) / RFU MYO3A (11730013_a_at) / Fold change /veh MYO3A (11730013_a_at) / RFU EBF3 (11725865_a_at) / Fold change /veh EBF3 (11725865_a_at) / RFU CAMK2N1 (11719241_x_at) / Fold change /veh CAMK2N1 (11719241_x_at) / RFU C5orf56 (11738088_a_at) / Fold change /veh C5orf56 (11738088_a_at) / RFU OLFML3 (11715873_a_at) / Fold change /veh OLFML3 (11715873_a_at) / RFU LOC100653217 /// NTM (11731650_a_at) / Fold change /veh LOC100653217 /// NTM (11731650_a_at) / RFU MAPK11 (11762145_a_at) / Fold change /veh MAPK11 (11762145_a_at) / RFU FIZ1 (11724087_x_at) / Fold change /veh FIZ1 (11724087_x_at) / RFU OASL (11726364_x_at) / Fold change /veh OASL (11726364_x_at) / RFU SOX15 (11748057_x_at) / Fold change /veh SOX15 (11748057_x_at) / RFU CD79A (11719716_a_at) / Fold change /veh CD79A (11719716_a_at) / RFU HIST1H1D (11736915_at) / Fold change /veh HIST1H1D (11736915_at) / RFU CASKIN2 (11723855_a_at) / Fold change /veh CASKIN2 (11723855_a_at) / RFU LOC730098 (11760151_x_at) / Fold change /veh LOC730098 (11760151_x_at) / RFU OR4N2 (11742367_at) / Fold change /veh OR4N2 (11742367_at) / RFU PRRT2 (11749266_a_at) / Fold change /veh PRRT2 (11749266_a_at) / RFU SNX32 (11753110_a_at) / Fold change /veh SNX32 (11753110_a_at) / RFU CDHR5 (11726645_a_at) / Fold change /veh CDHR5 (11726645_a_at) / RFU RCAN1 (11760418_a_at) / Fold change /veh RCAN1 (11760418_a_at) / RFU FAM167A (11723789_a_at) / Fold change /veh FAM167A (11723789_a_at) / RFU FAM26E (11764081_at) / Fold change /veh FAM26E (11764081_at) / RFU ISYNA1 (11749810_s_at) / Fold change /veh ISYNA1 (11749810_s_at) / RFU ACY1 (11761880_at) / Fold change /veh ACY1 (11761880_at) / RFU 11764098_at / Fold change /veh 11764098_at / RFU SAMD14 (11745864_x_at) / Fold change /veh SAMD14 (11745864_x_at) / RFU NPB (11741838_a_at) / Fold change /veh NPB (11741838_a_at) / RFU TMPRSS6 (11731388_a_at) / Fold change /veh TMPRSS6 (11731388_a_at) / RFU KRTAP10-2 (11738614_at) / Fold change /veh KRTAP10-2 (11738614_at) / RFU ARHGAP8 /// PRR5-ARHGAP8 (11727945_x_at) / Fold change /veh ARHGAP8 /// PRR5-ARHGAP8 (11727945_x_at) / RFU KRTAP5-7 /// NADSYN1 (11734609_at) / Fold change /veh KRTAP5-7 /// NADSYN1 (11734609_at) / RFU RASL12 (11751679_a_at) / Fold change /veh RASL12 (11751679_a_at) / RFU CDKN2B (11736163_a_at) / Fold change /veh CDKN2B (11736163_a_at) / RFU PRF1 (11729649_at) / Fold change /veh PRF1 (11729649_at) / RFU, ZNF638 /// ZNF638-IT1 / Fold change vs veh, ZNF638 /// ZNF638-IT1 / RFU, PANK3 / Fold change vs veh, PANK3 / RFU, SH3YL1 / Fold change vs veh, SH3YL1 / RFU, ZEB2 / Fold change vs veh, ZEB2 / RFU, NRIP1 / Fold change vs veh, NRIP1 / RFU, PTTG1IP / Fold change vs veh, PTTG1IP / RFU, CAPN2 / Fold change vs veh, CAPN2 / RFU, MED14 / Fold change vs veh, MED14 / RFU, SNORA58 / Fold change vs veh, SNORA58 / RFU, C1orf63 / Fold change vs veh, C1orf63 / RFU, LRRFIP1 / Fold change vs veh, LRRFIP1 / RFU, NDUFAF7 / Fold change vs veh, NDUFAF7 / RFU, SLC12A2 / Fold change vs veh, SLC12A2 / RFU, IBTK / Fold change vs veh, IBTK / RFU, ESF1 / Fold change vs veh, ESF1 / Fold change vs veh, TMEM50B / RFU, TAOK1 / Fold change vs veh, TAOK1 / RFU, ACBD3 / Fold change vs veh, ACBD3 / RFU, TMA16 / Fold change vs veh, TMA16 / RFU, RWDD3 / Fold change vs veh, RWDD3 / RFU, BCAT1 / Fold change vs veh, BCAT1 / RFU, EDEM3 / Fold change vs veh, EDEM3 / RFU, TMEM33 / Fold change vs veh, TMEM33 / RFU, WDR75 / Fold change vs veh, WDR75 / RFU, AHCTF1 / Fold change vs veh, AHCTF1 / RFU, TFRC / Fold change vs veh, TFRC / RFU, ZDHHC17 / Fold change vs veh, ZDHHC17 / RFU, NOM1 / Fold change vs veh, NOM1 / RFU, ARL8B / Fold change vs veh, ARL8B / RFU, ZBTB11 / Fold change vs veh, ZBTB11 / RFU, TAMM41 / Fold change vs veh, TAMM41 / RFU, KIAA1704 /// LOC100996395 / Fold change vs veh, KIAA1704 /// LOC100996395 / RFU, ING1 / Fold change vs veh, ING1 / RFU, TRMT61B / Fold change vs veh, TRMT61B / RFU, FUBP3 / Fold change vs veh, FUBP3 / RFU, TP53 / Fold change vs veh, TP53 / RFU, TNKS2 / Fold change vs veh, TNKS2 / RFU, ZFP14 / Fold change vs veh, ZFP14 / RFU, ACTR2 / Fold change vs veh, ACTR2 / RFU, PPP3R1 / Fold change vs veh, PPP3R1 / RFU, PIK3R1 / Fold change vs veh, PIK3R1 / RFU, HNRNPA1 / Fold change vs veh, HNRNPA1 / RFU, RNF170 / Fold change vs veh, RNF170 / RFU, ZNF28 / Fold change vs veh, ZNF28 / RFU, RNGTT / Fold change vs veh, RNGTT / RFU, OGT / Fold change vs veh, OGT / RFU, BRD1 / Fold change vs veh, BRD1 / RFU, MARS / Fold change vs veh, MARS / RFU, ZNF655 / Fold change vs veh, ZNF655 / RFU, FAHD1 / Fold change vs veh, FAHD1 / RFU, BDP1 / Fold change vs veh, BDP1 / RFU, LRRCC1 / Fold change vs veh, LRRCC1 / RFU, ARID1A / Fold change vs veh, ARID1A / RFU, ZNF146 / Fold change vs veh, ZNF146 / RFU, ZNF330 / Fold change vs veh, ZNF330 / RFU, GPN3 / Fold change vs veh, GPN3 / RFU, C9orf123 / Fold change vs veh, C9orf123 / RFU, N4BP2L2 / Fold change vs veh, N4BP2L2 / RFU, ARFIP1 / Fold change vs veh, ARFIP1 / RFU, FAM179B / Fold change vs veh, FAM179B / RFU, BCL10 / Fold change vs veh, BCL10 / RFU, UHRF1BP1L / Fold change vs veh, UHRF1BP1L / RFU, BET1 / Fold change vs veh, BET1 / RFU, CNOT2 / Fold change vs veh, CNOT2 / RFU, ZNF268 / Fold change vs veh, ZNF268 / Fold change vs veh, ZNF507 / RFU, DGCR2 / Fold change vs veh, DGCR2 / RFU, WDSUB1 / Fold change vs veh, WDSUB1 / Fold change vs veh, HSP90B1 /// MIR3652 / RFU, ADSS / Fold change vs veh, ADSS / RFU, GK / Fold change vs veh, GK / RFU, ZNF148 / Fold change vs veh, ZNF148 / RFU, TAF9 / Fold change vs veh, TAF9 / RFU, SLC1A5 / Fold change vs veh, SLC1A5 / RFU, SLMO2 / Fold change vs veh, SLMO2 / RFU, ABCC4 / Fold change vs veh, ABCC4 / RFU, LOC101060439 /// RAP1B / Fold change vs veh, LOC101060439 /// RAP1B / RFU, RFX7 / Fold change vs veh, RFX7 / RFU, GTPBP10 / Fold change vs veh, GTPBP10 / RFU, CNEP1R1 / Fold change vs veh, CNEP1R1 / RFU, BIVM-ERCC5 /// ERCC5 / Fold change vs veh, BIVM-ERCC5 /// ERCC5 / RFU, ILF3 / Fold change vs veh, ILF3 / RFU 11762660_at / Fold change /veh 11762660_at / RFU VCAN (11757783_s_at) / Fold change /veh VCAN (11757783_s_at) / RFU DDX43 (11728927_at) / Fold change /veh DDX43 (11728927_at) / RFU KRT8 (11758188_x_at) / Fold change /veh KRT8 (11758188_x_at) / RFU NKD1 (11759106_at) / Fold change /veh NKD1 (11759106_at) / RFU SRD5A1 (11742802_a_at) / Fold change /veh SRD5A1 (11742802_a_at) / RFU TPSAB1 /// TPSB2 (11721975_s_at) / Fold change /veh TPSAB1 /// TPSB2 (11721975_s_at) / RFU GSTM3 (11746129_a_at) / Fold change /veh GSTM3 (11746129_a_at) / RFU IL23R (11737362_x_at) / Fold change /veh IL23R (11737362_x_at) / RFU TMEM51 (11727254_a_at) / Fold change /veh TMEM51 (11727254_a_at) / RFU PIWIL2 (11732686_x_at) / Fold change /veh PIWIL2 (11732686_x_at) / RFU ORM1 (11744905_x_at) / Fold change /veh ORM1 (11744905_x_at) / RFU CCDC152 (11743942_at) / Fold change /veh CCDC152 (11743942_at) / RFU ECM1 (11717891_a_at) / Fold change /veh ECM1 (11717891_a_at) / RFU IL23R (11748794_a_at) / Fold change /veh IL23R (11748794_a_at) / RFU TNFAIP8L3 (11732012_x_at) / Fold change /veh TNFAIP8L3 (11732012_x_at) / RFU MBOAT4 (11741988_at) / Fold change /veh MBOAT4 (11741988_at) / RFU 11764193_at / Fold change /veh 11764193_at / RFU TMEM53 (11763286_at) / Fold change /veh TMEM53 (11763286_at) / RFU MAGEB2 (11727129_at) / Fold change /veh MAGEB2 (11727129_at) / RFU TMEM200A (11744735_a_at) / Fold change /veh TMEM200A (11744735_a_at) / RFU CCDC152 (11751479_a_at) / Fold change /veh CCDC152 (11751479_a_at) / RFU FAM211A (11726209_a_at) / Fold change /veh FAM211A (11726209_a_at) / RFU RGS16 (11746705_a_at) / Fold change /veh RGS16 (11746705_a_at) / RFU VCAN (11755009_s_at) / Fold change /veh VCAN (11755009_s_at) / RFU RHOB (11743442_s_at) / Fold change /veh RHOB (11743442_s_at) / RFU RGS16 (11720943_a_at) / Fold change /veh RGS16 (11720943_a_at) / RFU RGS16 (11720944_at) / Fold change /veh RGS16 (11720944_at) / RFU, VPS4B / Fold change vs veh, VPS4B / RFU, CREB1 / Fold change vs veh, CREB1 / RFU, DNAJC13 / Fold change vs veh, DNAJC13 / RFU, GNAQ / Fold change vs veh, GNAQ / RFU, CDK5R1 / Fold change vs veh, CDK5R1 / RFU, ZRANB3 / Fold change vs veh, ZRANB3 / RFU, CUL4A / Fold change vs veh, CUL4A / RFU, CCNY / Fold change vs veh, CCNY / RFU, UFL1 / Fold change vs veh, UFL1 / RFU, COG3 / Fold change vs veh, COG3 / RFU, DIAPH2 / Fold change vs veh, DIAPH2 / RFU, SKA2 / Fold change vs veh, SKA2 / RFU, AFF3 / Fold change vs veh, AFF3 / RFU, LMF1 / Fold change vs veh, LMF1 / RFU, IPO11 / Fold change vs veh, IPO11 / RFU, DFFB / Fold change vs veh, DFFB / RFU, FOXP1 / Fold change vs veh, FOXP1 / RFU, CARD8 / Fold change vs veh, CARD8 / RFU, STRN3 / Fold change vs veh, STRN3 / RFU, ADK / Fold change vs veh, ADK / RFU, RASSF2 / Fold change vs veh, RASSF2 / RFU, WIPF1 / Fold change vs veh, WIPF1 / RFU, LARP1B / Fold change vs veh, LARP1B / RFU, RASA1 / Fold change vs veh, RASA1 / RFU, RB1 / Fold change vs veh, RB1 / RFU, PPFIA1 / Fold change vs veh, PPFIA1 / RFU, MAT2A / Fold change vs veh, MAT2A / RFU, CCT5 / Fold change vs veh, CCT5 / RFU, WDR92 / Fold change vs veh, WDR92 / RFU, CUX1 / Fold change vs veh, CUX1 / RFU, TTC7A / Fold change vs veh, TTC7A / RFU, TMEM135 / Fold change vs veh, TMEM135 / RFU, DEPTOR / Fold change vs veh, DEPTOR / RFU, CPM / Fold change vs veh, CPM / RFU, DNAJB6 / Fold change vs veh, DNAJB6 / RFU, CACNA2D3 / Fold change vs veh, CACNA2D3 / RFU, DTX4 / Fold change vs veh, DTX4 / RFU, TFCP2 / Fold change vs veh, TFCP2 / RFU, GMCL1 /// GMCL1P1 / Fold change vs veh, GMCL1 /// GMCL1P1 / RFU, AEBP2 / Fold change vs veh, AEBP2 / RFU, SNHG1 /// SNORD22 /// SNORD25 /// SNORD26 /// SNORD27 /// SNORD28 /// SNORD29 /// SNORD31 / Fold change vs veh, SNHG1 /// SNORD22 /// SNORD25 /// SNORD26 /// SNORD27 /// SNORD28 /// SNORD29 /// SNORD31 / Fold change (Aza/veh), C12orf56 (ProbeSet 11735607_a_at) / Fold change (ACY-1035/veh), C12orf56 (ProbeSet 11735607_a_at) / Fold change (Aza/veh), FGFR1OP (ProbeSet 11751329_s_at) / Fold change (ACY-1035/veh), FGFR1OP (ProbeSet 11751329_s_at) / Fold change (Aza/veh), VPS36 (ProbeSet 11739960_a_at) / Fold change (ACY-1035/veh), VPS36 (ProbeSet 11739960_a_at) / RFU SYPL1 (11715823_x_at) / Fold change /veh SYPL1 (11715823_x_at) / RFU IGFBP7 (11715501_s_at) / Fold change /veh IGFBP7 (11715501_s_at) / RFU REEP3 (11722064_at) / Fold change /veh REEP3 (11722064_at) / RFU IGLL1 (11728026_x_at) / Fold change /veh IGLL1 (11728026_x_at): dose or concentration left out as unconfirmed. To be noted: MV-4-11 cells, 48 hours. The assay is classed as cell-based, human.

With `Nc1ccc(-c2cccs2)cc1NC(=O)c1ccc2c(c1)cc(C1CC1)n2CCN1CCOCC1` [ACY-1035], the “Fold change /veh RNFT2 (11725882_a_at)” value is given as 1.00.

The record behind these values is article PMC5218480 (PLoS ONE, 2017).
